Assay results published in patent US5783568A, “Methods for treating cancer and other cell proliferative diseases” (Sugen, Inc., priority 1994, dated 1998).
Entries after “also recorded” stand apart in the source; their conditions may differ.

Experiments:
[1] = target: T1, aFGF (Homo sapiens, UniProt P05230); experiment: Isothermal titration calorimetry, binding to aFGF; settings: from ITC stoichiometry
T1 construct: made in house; host or cells: E. coli

[2] = system: sFGFR (soluble extracellular domain of FGFR2); experiment: Isothermal titration calorimetry, heparin binding to sFGFR; set-up: species or system human; settings: ITC
[3] = system: vascular endothelial cells; settings: cited from earlier work
[4] = system: FGFR1 extracellular domain; settings: Kan et al., 1993; cited from earlier work
[5] = target: T1, aFGF; settings: Mach et al., 1993; cited from earlier work
[6] = system: FGFR2 (bek); experiment: Cross-linking (BS^3) of FGF receptors in CHO-K1 cells, receptor dimerization; assay type: cell-based, human; settings: 0.1 nM aFGF, with or without 50 nM heparin
Protocol: (§1) Parental (lanes 1-4) and mutant CHO cells (lanes 5-8) were incubated with either 50 nM heparin (lanes 2 and 6), 0.1 nM aFGF (lanes 3 and 7), or both (lanes 4 and 8), for 1 hour at 4° C. Cells were then treated with the covalent cross-linking agent BS^3 for […] at room temperature, solubilized and immunoprecipitated with anti-FGFR2 antibodies. The samples were analyzed by a gradient SDS gel (6-8%), transferred to nitrocellulose membranes and probed with anti-FGFR2 antibodies. M--FGFR monomers; D--FGFR dimers.
(§2) Cells grown in fibronectin-coated dishes were starved overnight in F-12 medium containing 0.5% FBS. Cells were then washed with ice-cold binding medium (F-12 medium containing 20 mM Hepes (pH 7.5) and 0.1% BSA), and incubated for 1 hour at 4° C. with either aFGF (0.1 nM), heparin (50 nM), or both. The cells were then washed twice with cold PBS and incubated with 1 mM BS^3 in PBS for 20 minutes at room temperature. The cross-linking reaction was quenched by the addition of 50 mM Tris-HCl and 100 mM glycine for 10 min at room temperature. […]
(§3) Full-length FGFR2 was transfected into two CHO cell lines; wild-type CHO-K1, and the mutant CHO-pgsD-677, which is defective in heparin sulfate expression at its cell-surface (Esko, 1991). […] Cells were then lysed, and immunoprecipitated FGFR2 was analyzed by SDS-PAGE followed by immunoblotting with anti-FGFR2 antibodies.

[7] = system: FGFR2 (bek); experiment: Cross-linking (BS^3) of FGF receptors in mutant CHO-pgsD-677 cells, receptor dimerization; assay type: cell-based, human; settings: 0.1 nM aFGF, with or without 50 nM heparin
Protocol: as §1, §2, §3

[8] = system: FGFR2 (bek); experiment: Tyrosine phosphorylation of FGFR2 in wild-type CHO-K1 cells; assay type: cell-based, human; settings: 0.1 nM aFGF alone, 5 min at 37° C.
Protocol: Cells were lysed and the receptor was immunoprecipitated with anti-FGFR2 antibodies. Samples were then analyzed by SDS-PAGE, transferred to nitrocellulose membranes, and tyrosine-phosphorylated proteins were detected by immunoblotting with anti-phosphotyrosine antibodies.
Wild-type CHO cells (CHO-K1), as well as heparin sulfate-deficient mutant cells (CHO-pgsD-677) which were kindly provided by Prof. J. Esko (Esko, 1991), were cultured in F-12 medium containing 7.5% FBS, 1% Ampicillin/Streptomycin and 1% glutamine. Both CHO cell lines were co-transfected with the wild-type human FGFR2 (bek) DNA in the expression vector pMJ30 (Dionne et al., 1990) (40 μg/10 cm dish) and the pSVneo resistant gene (0.5 mg/10 cm dish), using the calcium phosphate method (Chen and Okayama, 1987). Geneticin (1 mg/ml) resistant clones were screened for expression of the receptor by immunoprecipitation and immunoblotting analysis using anti-FGFR2 antibodies.
Wild-type and mutant CHO cells were starved overnight in F-12 medium containing 0.5% FBS, and stimulated with either 0.1 nM aFGF, 50 nM heparin, or both, for 5 min at 37° C. Cells were lysed, immunoprecipitated with anti-FGFR2 antibodies and analyzed by immunoblotting with anti-phosphotyrosine (anti-PTyr) antibodies.

[9] = system: FGFR1 (flg); experiment: FGFR1 (flg) expressed in the two CHO cell lines; assay type: cell-based

T1 sequence (P05230 whole entry): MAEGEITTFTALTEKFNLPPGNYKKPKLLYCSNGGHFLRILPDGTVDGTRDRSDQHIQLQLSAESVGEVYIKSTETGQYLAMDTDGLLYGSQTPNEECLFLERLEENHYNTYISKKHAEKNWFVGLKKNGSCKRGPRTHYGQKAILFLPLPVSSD

Substance | saccharide units of heparin per one bound aFGF [1] | heparin binding to sFGFR [2] | mitogenic effect of aFGF on vascular endothelial cells [3] | binding to the extracellular domain of FGFR1 [4] | binding to aFGF [5] | receptor dimerization in CHO-K1 cells [6] | receptor dimerization in mutant CHO-pgsD-677 cells [7] | FGFR2 autophosphorylation in CHO-K1 cells [8] | dimerization and autophosphorylation with FGFR1 (flg) [9]
heparin | 4-5 saccharide units | failed to detect an interaction with significant affinity; also recorded: could not be detected; also recorded: does not itself interact with sFGFR | potentiates the mitogenic effect of aFGF on vascular endothelial cells | binds to the extracellular domain of FGFR1 | relatively high affinity, in a multivalent fashion | – | – | – | –
aFGF: aFGF was expressed in E. coli and purified by binding to a heparin-sepharose column | – | – | – | – | – | could induce receptor dimerization regardless of the presence of exogenous heparin | could only induce the dimerization of FGFR2 when exogenous heparin was added; also recorded: can only induce FGFR dimerization in the presence of heparin | stimulation of FGFR2 autophosphorylation | Identical results
